In one assay the target is T1, Human recombinant MMP-13 (Homo sapiens, UniProt P45452).
T1 construct: made in house; host or cells: baculovirus / insect cells
Put plainly: In vitro MMP inhibition, Ki determination (fluorogenic substrate II). Format: biochemical. The following applies: value in parenthesis. The protocol:
(§1) Several hydroxamates and salts thereof were analyzed in in vitro assays to determine their ability to inhibit the MMP cleavage of peptide substrates. Inhibition (Ki) and IC50 constants were calculated from the assayed hydroxamate-MMP interactions.
(§2) Human recombinant MMP-1, MMP-2, MMP-9, MMP-13, and MMP-14 were used in this assay. All enzymes were prepared in Assignee's laboratories following usual laboratory procedures. Protocols for the preparation and use of these enzymes are available in the scientific literature. See, e.g., Enzyme Nomenclature (Academic Press, San Diego, Calif., 1992) (and the citations therein). See also, Frije et al., J. Biol. Chem., 26(24), 16766-73 (1994).
The expressed proenzyme was first purified over a heparin agarose column, and then over a chelating zinc chloride column. The proenzyme was then activated by APMA for use in the assay. Further details on baculovirus expression systems may be found in, for example, Luckow et al., J. Virol., 67, 4566-79 (1993). See also, O'Reilly et al, Baculovirus Expression Vectors: A Laboratory Manual (W. H. Freeman and Co., New York, N.Y., 1992). See also, King et al., The Baculovirus Expression System: A Laboratory Guide (Chapman & Hall, London, England, 1992).
(§3) All MMPs were activated using 4-aminophenylmercuric acetate (“APMA”, Sigma Chemical, St. Louis, Mo.) or trypsin. MMP-9 also was activated using human recombinant MMP-3 (purified in Assignee's laboratory following standard cloning and purification techniques).
(§4) Two fluorogenic, methoxycoumarin-containing polypeptide substrates were used in the MMP inhibition assays:
(§5) MCA-ArgProLeuGlyLeuDpaAlaArgGluArgNH2 (II)
(§6) Here, “Dpa” is 3-(2,4-dinitrophenyl)-L-2,3-diaminopropionyl group, and “MCA” is 7-methoxycoumarin-4-yl acetyl. Substrate (I) was purchased from Baychem (Redwood City, Calif.), and substrate II was prepared Assignee's laboratory. Substrate I was used in the IC50 determination assays, while substrate II was used in the Ki determination assays. In the absence of MMP inhibitory activity, either substrate is cleaved at the Gly-Leu peptide bond. This cleavage separates the highly fluorogenic peptide from the 2,4-dinitrophenyl quencher, thus resulting in increase of fluorescent intensity.
(§7) The stock solutions of the assayed hydroxamates (or salts thereof) were prepared in 1% dimethyl sulfoxide (DMSO). These stock solutions were diluted in Buffer A (100 mM Tris-HCl, 100 mM NaCl, 10 mM CaCl2, 0.05% polyoxyethylene 23 lauryl ether, pH 7.5) to obtain solutions with different hydroxamate concentrations, i.e., assay solutions with different concentrations of the assayed MMP inhibitory compound. The experiment controls contained the same amount of Buffer A/DMSO as the assayed sample, but contained no hydroxamate (or salt thereof).
The assays from which the Ki determinations were made were performed as follows. The assayed hydroxamate samples were incubated in separate wells of untreated white polystyrene plates (Nunc Nalgene International, Rochester, N.Y.), and analyzed on a Tecan SpectraFlour Plus plate reader. The excitation wavelength was 330 nm, and the emission wavelength—420 nm. All samples (assayed hydroxamates and controls) were incubated in separate plate wells at room temperature for 1 hr in the presence of 4 μM of MMP substrate (II). In the absence of MMP inhibitory activity, substrate II was cleaved at the Gly-Leu bond resulting in an increase of relative fluorescence. Inhibition was observed as a reduced rate of this increase in relative fluorescence. The various hydroxamates were analyzed using a single low enzyme concentration with a single substrate concentration fixed at or below the Km. This protocol is a modification of method by Knight et al., FEBS Lett., 296(3), 263-266 (1992). Apparent inhibitory constants were determined by non-linear regression of reaction velocity as a function of inhibitor and enzyme concentration using Morrison's equation, as described by Kuzmic, Anal. Biochem. 286, 45-50 (2000). […]

In the next assay the target is T2, Human recombinant MMP-2 (Homo sapiens, UniProt P08253).
T2 construct: made in house; host or cells: MMP-2-transfected p2AHT2 cells
T2 sequence (P08253 110-660): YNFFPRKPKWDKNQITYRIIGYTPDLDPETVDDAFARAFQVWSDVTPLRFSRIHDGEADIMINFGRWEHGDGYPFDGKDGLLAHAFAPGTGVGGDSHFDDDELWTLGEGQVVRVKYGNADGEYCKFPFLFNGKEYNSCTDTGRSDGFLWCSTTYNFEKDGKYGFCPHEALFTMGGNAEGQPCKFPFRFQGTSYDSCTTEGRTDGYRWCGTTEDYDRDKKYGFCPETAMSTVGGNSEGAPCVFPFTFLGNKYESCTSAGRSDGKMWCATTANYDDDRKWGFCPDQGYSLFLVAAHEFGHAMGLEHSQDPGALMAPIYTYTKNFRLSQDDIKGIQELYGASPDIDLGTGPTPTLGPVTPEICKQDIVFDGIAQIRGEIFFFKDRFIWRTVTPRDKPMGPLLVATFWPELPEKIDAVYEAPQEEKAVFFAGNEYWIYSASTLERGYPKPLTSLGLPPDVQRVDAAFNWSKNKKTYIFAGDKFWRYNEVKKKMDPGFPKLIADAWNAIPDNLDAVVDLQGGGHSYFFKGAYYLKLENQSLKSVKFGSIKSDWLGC
The description is as above. Particulars: value in parenthesis. Format: biochemical. The protocol: as §1, §2
The MMP-2 proenzyme was purified by gelatin Sepharose chromatography from MMP-2-transfected p2AHT2 cells provided by Dr. Gregory Goldberg of Washington University (St. Louis, Mo.).
as §3, §4, §5, §6, §7
The assays from which the Ki determinations were made were performed as follows. The assayed hydroxamate samples were incubated in separate wells of untreated white polystyrene plates (Nunc Nalgene International, Rochester, N.Y.), and analyzed on a Tecan SpectraFlour Plus plate reader. The excitation wavelength was 330 nm, and the emission wavelength—420 nm. All samples (assayed hydroxamates and controls) were incubated in separate plate wells at room temperature for 1 hr in the presence of 4 μM of MMP substrate (II). In the absence of MMP inhibitory activity, substrate II was cleaved at the Gly-Leu bond resulting in an increase of relative fluorescence. Inhibition was observed as a reduced rate of this increase in relative fluorescence. The various hydroxamates were analyzed using a single low enzyme concentration with a single substrate concentration fixed at or below the Km. This protocol is a modification of method by Knight et al., FEBS Lett., 296(3), 263-266 (1992). Apparent inhibitory constants were determined by non-linear regression of reaction velocity as a function of inhibitor and enzyme concentration using Morrison's equation, as described by Kuzmic, Anal. Biochem. 286, 45-50 (2000). […] Since the substrate concentration was chosen to be at or below the Km, the apparent Ki's from this analysis were reported as Ki's without correction for the influence of substrate.

Molecules are shown by their SMILES.

Regarding `O=C(NO)C1(S(=O)(=O)c2ccc(OCCc3cccc(-c4ccncc4)c3)cc2)CCOCC1` [Example 113], the inhibition constant (Ki) (usually the dissociation constant of the complex between target and ligand, obtained from inhibition or displacement) on Human recombinant MMP-13 was 0.312 nM; at Human recombinant MMP-2, 42.3 nM.

Consider `O=C(NO)C1(S(=O)(=O)c2ccc(OCCc3cccc(-c4ccccc4F)c3)cc2)CCOCC1` [Example 115], for which the Ki was 2.24 nM at Human recombinant MMP-13 and 807 nM at Human recombinant MMP-2.

With `O=C(NO)C1(S(=O)(=O)c2ccc(OCCc3cccc(-c4ccc(F)cc4)c3)cc2)CCOCC1` [Example 123], the inhibition constant (Ki) at Human recombinant MMP-13 was determined as 7.35 nM; at Human recombinant MMP-2, 793 nM.

Consider `O=C(NO)C1(S(=O)(=O)c2ccc(OCCc3cccc(-c4cccnc4)c3)cc2)CCOCC1` [Example 125], for which the inhibitory constant (Ki) at Human recombinant MMP-13 was determined as 0.17 nM; at Human recombinant MMP-2 it was 51.3 nM.

`Cc1ccc(-c2cccc(CCOc3ccc(S(=O)(=O)C4(C(=O)NO)CCOCC4)cc3)c2)cc1` [Example 127]: the Ki at Human recombinant MMP-13 was determined as 16.2 nM; at Human recombinant MMP-2, 2160 nM.

For `O=C(NO)C1(S(=O)(=O)c2ccc(OCCCc3cccc(-c4ccc(F)cc4)c3)cc2)CCN(C2CC2)CC1` [Example 139], the Ki on Human recombinant MMP-13 is 2.89 nM; at Human recombinant MMP-2, 1410 nM.

Take `COCCN1CCC(C(=O)NO)(S(=O)(=O)c2ccc(OCCCc3cccc(-c4ccc(F)cc4)c3)cc2)CC1` [Example 140]: the results for the Ki at Human recombinant MMP-13 and on Human recombinant MMP-2 were 0.895 nM and 708 nM, respectively.

For the compound `O=C1Nc2ccc(-c3noc(CCCOc4ccc(S(=O)(=O)C5(C(=O)NO)CCN(C6CC6)CC5)cc4)n3)cc21` [Example 142], the figures for the inhibition constant Ki at Human recombinant MMP-13 and at Human recombinant MMP-2 were 1.34 nM and 96.4 nM, respectively.

Take `O=C(NO)C1(S(=O)(=O)c2ccc(OCCCc3cccc(-c4ccc(OC(F)(F)F)cc4)c3)cc2)CCOCC1` [Example 147]: the inhibition constant Ki at Human recombinant MMP-13 is 23.9 nM; at Human recombinant MMP-2, greater than 10000 nM.

As for `O=C(NO)C1(S(=O)(=O)c2ccc(OCCCc3cccc(-c4ccccn4)c3)cc2)CCOCC1` [Example 148], the inhibitory constant (Ki) at Human recombinant MMP-13 worked out at 1.72 nM; at Human recombinant MMP-2, 213 nM.

Take `O=C(NO)C1(S(=O)(=O)c2ccc(OCCCc3cccc(-c4ccncc4)c3)cc2)CCOCC1` [Example 149]: the figures for the Ki at Human recombinant MMP-13 and on Human recombinant MMP-2 were 1.18 nM and 84.1 nM, respectively.

Consider `O=C(NO)C1(S(=O)(=O)c2ccc(OCCCc3cccc(-c4cccnc4)c3)cc2)CCOCC1` [Example 150], for which the Ki came to 0.587 nM on Human recombinant MMP-13 and 159 nM at Human recombinant MMP-2.

Take `COCCN1CCC(C(=O)NO)(S(=O)(=O)c2ccc(OCCCc3nc(-c4ccccc4OC(F)(F)F)no3)cc2)CC1` [Example 152]: the Ki at Human recombinant MMP-13 is 2.66 nM; at Human recombinant MMP-2 it was 149 nM.

For the compound `O=C(NO)C1(S(=O)(=O)c2ccc(OCCCc3cccc(Br)c3)cc2)CCOCC1` [Example 154], the Ki was 0.95 nM at Human recombinant MMP-13 and 33.9 nM on Human recombinant MMP-2.

With `CCc1ccccc1-c1noc(CCCOc2ccc(S(=O)(=O)C3(C(=O)NO)CCN(CCOC)CC3)cc2)n1` [Example 155], the values for the Ki on Human recombinant MMP-13 and at Human recombinant MMP-2 were 1.58 nM and 37.9 nM, respectively.

Turning to `O=C(NO)C1(S(=O)(=O)c2ccc(OCCOc3cccc(-c4ccccc4)c3)cc2)CCOCC1` [Example 157], the inhibition constant (Ki) on Human recombinant MMP-13 was 4.01 nM; at Human recombinant MMP-2, 419 nM.

For the compound `O=C(NO)C1(S(=O)(=O)c2ccc(OCCCc3cccc(-c4cccc(F)c4)c3)cc2)CCOCC1` [Example 161], the inhibition constant (Ki) on Human recombinant MMP-13 was 20.3 nM; at Human recombinant MMP-2, 1760 nM.

Take `O=C(NO)C1(S(=O)(=O)c2ccc(OCCCc3cccc(-c4ccccc4Cl)c3)cc2)CCOCC1` [Example 162]: the inhibition constant (Ki) on Human recombinant MMP-13 was determined as 12 nM; on Human recombinant MMP-2, 2370 nM.

Turning to `O=C(NO)C1(S(=O)(=O)c2ccc(OCCCc3cccc(-c4ccccc4F)c3)cc2)CCOCC1` [Example 163], the Ki amounted to 11.6 nM on Human recombinant MMP-13 and 1010 nM on Human recombinant MMP-2.

On to `Cc1ccccc1-c1cccc(CCCOc2ccc(S(=O)(=O)C3(C(=O)NO)CCOCC3)cc2)c1` [Example 164], for which the inhibitory constant (Ki) turned out to be 6.85 nM on Human recombinant MMP-13 and 978 nM on Human recombinant MMP-2.

As to `Cc1ccc(-c2cccc(CCCOc3ccc(S(=O)(=O)C4(C(=O)NO)CCOCC4)cc3)c2)cc1C` [Example 165], the values for the Ki at Human recombinant MMP-13 and on Human recombinant MMP-2 were 144 nM and greater than 10000 nM, respectively.

Consider `COCCN1CCC(C(=O)NO)(S(=O)(=O)c2ccc(OCCCc3nc(-c4ccc(CC(C)C)cc4)no3)cc2)CC1` [Example 175], for which the Ki on Human recombinant MMP-13 was determined as 2.01 nM; at Human recombinant MMP-2, 872 nM.

Regarding `COCCN1CCC(C(=O)NO)(S(=O)(=O)c2ccc(OCCCc3nnc(-c4ccccc4C(F)(F)F)o3)cc2)CC1` [Example 178], the inhibition constant (Ki) was 1.71 nM at Human recombinant MMP-13 and 39.3 nM at Human recombinant MMP-2.

For `O=C(CCCOc1ccc(S(=O)(=O)C2(C(=O)NO)CCOCC2)cc1)Nc1cccc(OC(F)(F)F)c1` [Example 181], the figures for the inhibitory constant (Ki) on Human recombinant MMP-13 and at Human recombinant MMP-2 were 0.27 nM and 15.8 nM, respectively.

For the compound `CC(C)c1cccc(NC(=O)CCCOc2ccc(S(=O)(=O)C3(C(=O)NO)CCOCC3)cc2)c1` [Example 182], the Ki at Human recombinant MMP-13 was 0.212 nM; on Human recombinant MMP-2, 34.3 nM.

`COCCN1CCC(C(=O)NO)(S(=O)(=O)c2ccc(OCCCc3nc(-c4ccc(OC(F)(F)F)cc4)no3)cc2)CC1` [Example 190]: the inhibitory constant (Ki) came out at 0.6 nM at Human recombinant MMP-13 and 283 nM at Human recombinant MMP-2.

With `O=C(NO)C1(S(=O)(=O)c2ccc(OCCCc3ccnc(-c4ccccc4)c3)cc2)CCOCC1` [Example 197], the inhibition constant (Ki) at Human recombinant MMP-13 is 0.37 nM; on Human recombinant MMP-2, 30.7 nM.

Turning to `O=C(CCCc1ccc(S(=O)(=O)C2(C(=O)NO)CCOCC2)cc1)c1cccc(-c2ccccc2)c1` [Example 219], the Ki on Human recombinant MMP-13 was 0.355 nM; at Human recombinant MMP-2 it was 105 nM.

As to `O=C(CCCOc1ccc(S(=O)(=O)C2(C(=O)NO)CCOCC2)cc1)Nc1ccc(OC(F)(F)F)cc1` [Example 228], the figures for the Ki at Human recombinant MMP-13 and on Human recombinant MMP-2 were 0.324 nM and 22.4 nM, respectively.

Source of the values: patent US20040024024A1, “Aromatic sulfone hydroxamates and their use as protease inhibitors” (priority 2001, published 2004).
